Measured values published in patent US11370825B2, “Polypeptides, cells, and methods involving engineered CD16” (Regents of the University of Minnesota, priority 2014, dated 2022).

What was measured:
ADAM17 = experiment: Anti-ADAM17 mAb staining of NK92 cells expressing CD16a or CD16a/S197P, flow cytometry; format: cell-based, human; settings: NK92 cells expressing CD16a compared with CD16a/S197P; multiple anti-ADAM17 mAbs
Experimental: FIG. 4. Effects of the engineered S197P mutation on CD16a shedding in NK cells. NK92 cells transduced with empty vector (vector only), CD16a, or CD16a/S197P were treated without (Unstim.) or with PMA (100 ng/ml) for 30 minutes at 37° C. (A), with IL-12 and IL-18 (100 ng/ml and 400 ng/ml, respectively) for 24 hours at 37° C. (B), or with Raji cells and rituximab for 60 minutes at 37° C. (C). Cell surface levels of CD16a were determined by flow cytometry. Isotype-matched negative control antibody staining is indicated by a dotted line. […] Soluble CD16a levels were determined by ELISA. […] For all histogram plots, the x-axis=Log 10 fluorescence, the y-axis=cell number, and the data are representative of at least 3 independent experiments.
(§1) For cell staining, nonspecific antibody binding sites were blocked and cells were stained with the indicated antibodies and examined by flow cytometry, as previously described (Wang et al., 2013, Biochim Biophys Acta. 1833:680-685; Romee et al., 2013, Blood 121:3599-3608). […] Human CD16 was detected by the mAbs 3G8 (BioLegend, Inc., San Diego, Calif.) and DJ130c (Santa Cruz Biotech, Santa Cruz, Calif.). CD107a was detected by the mAb H4A3 (Biolegend, Inc., San Diego, Calif.). ADAM17 was detected by the mAbs M220 (Doedens et al., 2000, J Biol Chem. 275:14598-14607), 111633, and 111623 (R&D Systems, Inc., Minneapolis, Minn.). […]

iPSC-derived NK cells = experiment: Cell surface CD16a on iPSC-derived NK cells stimulated with K562 cells, flow cytometry; format: cell-based, human; settings: iPSC-derived NK cells with K562 target cells (2:1 ratio), four hours at 37° C.
monomeric human IgG = experiment: Antibody binding assay: monomeric human IgG and IgA binding to NK92 cells expressing CD16a or CD16a/S197P; settings: NK92 cells expressing the receptor; IgA 20 μg/ml
Experimental: (§2) FIG. 5. Effects of the engineered S197P mutation on CD16a function. (A) NK92 cells expressing CD16a or CD16a/S197P at equivalent levels (left panel) were treated with monomeric human IgG (0-20 μg/ml). As controls, cells were also treated with monomeric human IgA (20 μg/ml), and NK92 parent cells were treated with IgG (20 μg/ml) (bar). Antibody binding was determined by flow cytometry, as described in Materials and Methods. […] Statistical significance is indicated as *P<0.05 versus IgG (0 μg/ml), IgA, or NK92 parent cells+IgG. (B) Mock transduced NK92 cells or NK92 cells expressing CD16a or CD16a/S197P were incubated in the absence (Unstim.) or presence of Raji cells treated with or without anti-CD20 rituximab for the indicated time points at 37° C. NK92 cell activation was assessed by the up-regulation in CD107a staining by flow cytometry. For the histogram plots, the x-axis=Log 10 fluorescence and the y-axis=cell number. Data are representative of at least 3 independent experiments.
Cell binding to monomeric human IgG and IgA (Sigma-Aldrich, St. Louis, Mo.) was performed as previously described with some modifications (Dong et al., 2014, Arthritis Rheumatol. 66:1291-1299). […] The cells were washed and then immediately analyzed by flow cytometry.

NK92 cells = experiment: NK92 cell activation: CD107a up-regulation on incubation with Raji cells with or without rituximab, flow cytometry; format: cell-based, human
Experimental: as §2
HEK293 and NK92 cells in RPMI 1640 media (Mediatech, Inc., Manassas, Va.) were activated with 15 ng/ml and 100 ng/ml, respectively, PMA for 30 minutes at 37° C. NK92 cells were activated with IL-12 (PeproTech Inc, Rocky Hill, N.J.) and IL-18 (R&D Systems, Inc., Minneapolis, Minn.) at 100 ng/ml and 400 ng/ml, respectively, for the indicated time points. NK92 cell activation through CD16a was mediated by their incubation with the CD20-positive Burkitt's lymphoma cell line Raji (ATCC, grown according to the depository's instructions) (1:1 ratio) treated with the anti-CD20 mAb rituximab (1 μg/ml) (Genentech, Inc., South San Francisco, Calif.), as described previously (Romee et al., 2013, Blood 121:3599-3608). Excess rituximab was removed by washing the Raji cells. In some experiments, NK92 cells were pre-incubated for 30 minutes with the selective ADAM17 inhibitor BMS566394 (5 μM) (Bristol-Myers Squibb Company, Princeton, N.J.). […]
as §1, with “Minn.). Human L-selectin was detected by the mAb LAM1-116 (Ancell Corp., Stillwater, Minn.).” for “Minn.).”

[1] = NK92 cells incubated with Raji cells alone
[2] = NK92 cells incubated with Raji cells treated with rituximab

Substance | ADAM17 cell surface levels (ADAM17) | cell surface expression of CD16a after stimulation (iPSC-derived NK cells) | monomeric IgA binding (control) (monomeric human IgG) | up-regulation of CD107a (NK92 cells; [1]) | up-regulation of CD107a (NK92 cells; [2])
CD16a: Wild-type human IgG Fc receptor CD16a (FcγRIIIa), valine allelic variant, recombinant comparator [reference compound] | identical cell surface levels | marked down-regulation | essentially background levels | marginally up-regulated | considerable up-regulation
CD16a/S197P: Human CD16a (FcγRIIIa, SEQ ID NO:1) with serine-197 substituted by proline in the membrane proximal cleavage region; expressed recombinantly in cells | identical cell surface levels | remained stable | essentially background levels | marginally up-regulated | considerable up-regulation
